The target in the assay is Runt-related transcription factor 1 (Homo sapiens) + Core-binding factor subunit beta (Homo sapiens) (UniProt Q01196+Q13951). Put plainly: Runt domain/CBFb-SMMHC interaction disruptors – biochemical, TR-FRET (AID 1438).

pIC50: −log10 of the molar value.

Sequence of Runt-related transcription factor 1 (Homo sapiens) + Core-binding factor subunit beta (Homo sapiens) (Q01196 whole entry, looked up, the tested form may be a part): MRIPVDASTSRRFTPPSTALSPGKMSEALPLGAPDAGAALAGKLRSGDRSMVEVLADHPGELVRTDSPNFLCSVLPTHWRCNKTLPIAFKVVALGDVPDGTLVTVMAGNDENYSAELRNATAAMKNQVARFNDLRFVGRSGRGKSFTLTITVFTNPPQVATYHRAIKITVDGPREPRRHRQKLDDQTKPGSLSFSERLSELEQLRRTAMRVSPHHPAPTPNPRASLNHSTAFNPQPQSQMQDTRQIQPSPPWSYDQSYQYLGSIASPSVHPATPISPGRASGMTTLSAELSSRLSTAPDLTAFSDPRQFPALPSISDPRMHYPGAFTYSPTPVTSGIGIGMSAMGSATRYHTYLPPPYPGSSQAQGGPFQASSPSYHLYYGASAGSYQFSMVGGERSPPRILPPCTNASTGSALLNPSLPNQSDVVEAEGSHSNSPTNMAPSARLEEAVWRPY
Sequence of Runt-related transcription factor 1 (Homo sapiens) + Core-binding factor subunit beta (Homo sapiens) (Q13951 whole entry, looked up, the tested form may be a part): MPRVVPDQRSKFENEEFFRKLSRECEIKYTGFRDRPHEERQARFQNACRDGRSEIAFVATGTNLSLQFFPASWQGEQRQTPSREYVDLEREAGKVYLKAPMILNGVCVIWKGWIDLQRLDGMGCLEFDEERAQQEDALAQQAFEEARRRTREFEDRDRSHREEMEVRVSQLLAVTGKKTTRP

For the compound `CN1CCc2cccc3c2[C@@H]1Cc1ccc(O)c(O)c1-3`, the pIC50 was 5.15.
